Reference: patent US20260265316A1, “IMMUNOTHERAPEUTIC METHODS, COMPOUNDS, AND COMPOSITIONS FOR TREATING OR PREVENTING CELIAC DISEASE” (DBV Technologies, priority 2023, published 2026)

How the values were obtained:
[1] = Protocol: Freeze-dried aliquots of the three gliadin polypeptide constructs Cv6, Av6, and 4K, as well as the four building blocks BB1, BB2a, BB3a, and BB4a were reconstituted in pure water, loaded on a PET-Ti backing film and dried in an oven (at ~30° C.). Immediately after drying, dry deposits were reconstituted at five different molarities (approximately 1.8, 0.91, 0.45, 0.091 or 0.045 mM) by pipetting up and down with either pure water (A), PBS 1× (B), or artificial perspiration (C). The concentration in soluble material was measured by HPLC at 215 nm from the solutions recovered from PET-Ti backing films. Data are median+interquartile range of the different molarities tested. Data are expressed as the percentage of soluble material recovered, based on the expected concentration (all values above 100% were set to 100).
Immediately after drying, dry deposits were reconstituted at five different concentrations (20, 10, 5, 1 and 0.5 mg/mL) by pipetting up and down with either pure water (A), PBS 1× (B), or artificial perspiration (C). The concentration in soluble material was measured by HPLC at 215 nm from the solutions recovered from PET-Ti backing films. Data are presented as median+interquartile range of the different molarities tested. Data are expressed as the percentage of soluble material recovered, based on the expected concentration (all values above 100% were set to 100). (D) As an illustration, photographs of the reconstitution of dry deposits with pure water are shown and annotated.
Immediately after drying, deposits were reconstituted by pipetting up and down with each of pure water, PBS 1× at pH 7.0, and artificial perspiration at pH 4.5, each at five different molarities (approximately 1.8, 0.91, 0.45, 0.091, and 0.045 mM). The concentration in soluble material was measured by HPLC at 215 nm.
Immediately after drying, patch deposits were reconstituted by pipetting up and down with each of pure water, PBS 1× at pH 7.0, and artificial perspiration at pH 4.5, at five different concentrations (20, 10, 5, 1, and 0.5 mg/mL). The concentration in soluble material was measured by HPLC at 215 nm.

[2] = Solubility upon drying on PET-Ti backing film and storage for 1 or 3 months at room temperature or 5° C.; assay type: physicochemical
Protocol: Backing films were stored for 1 month at room temperature (A, B, C) or 5° C. (D, E, F), away from light and humidity.
Backing films were stored for 3 months at room temperature (A, B, C) or 5° C. (D, E, F), away from light and humidity.
In order to evaluate their solubility upon deposition on a patch backing film and a period of storage, the three polypeptide constructs and the four individual building blocks were each dried on a PET-Ti backing film as described above. Backing films were stored at room temperature or 5° C. for 1 or 3 months.

[3] = stored at 5° C. for 1 month, PBS 1×
[4] = stored at 5° C. for 1 month, artificial perspiration
[5] = stored at 5° C. for 1 month, water
[6] = stored at 5° C. for 3 months, PBS 1×
[7] = stored at 5° C. for 3 months, artificial perspiration
[8] = stored at 5° C. for 3 months, water
[9] = stored at room temperature for 1 month, PBS 1×
[10] = stored at room temperature for 1 month, artificial perspiration
[11] = stored at room temperature for 1 month, water
[12] = stored at room temperature for 3 months, PBS 1×
[13] = stored at room temperature for 3 months, artificial perspiration
[14] = stored at room temperature for 3 months, water

Substance: H-PQPEQPEQPFPEQPQ-NH2 [BB2a]
- median percentage of soluble material recovered from the patch backing film [1]: above 80%
- decrease in median percentage of soluble material recovered from the patch backing film compared to 4K [2, 3]: 16%
- decrease in median percentage of soluble material recovered from the patch backing film compared to Av6 [2, 3]: 7%
- decrease in median percentage of soluble material recovered from the patch backing film compared to Cv6 [2, 3]: 14%
- decrease in median percentage of soluble material recovered from the patch backing film compared to 4K [2, 4]: 14%
- decrease in median percentage of soluble material recovered from the patch backing film compared to Av6 [2, 4]: 8%
- decrease in median percentage of soluble material recovered from the patch backing film compared to Cv6 [2, 4]: 7%
- decrease in median percentage of soluble material recovered from the patch backing film compared to 4K [2, 5]: 20%
- decrease in median percentage of soluble material recovered from the patch backing film compared to Av6 [2, 5]: 10%
- decrease in median percentage of soluble material recovered from the patch backing film compared to Cv6 [2, 5]: 6%
- decrease in median percentage of soluble material recovered from the patch backing film compared to 4K [2, 6]: 16%
- decrease in median percentage of soluble material recovered from the patch backing film compared to Av6 [2, 6]: 9%
- decrease in median percentage of soluble material recovered from the patch backing film compared to Cv6 [2, 6]: 16%
- decrease in median percentage of soluble material recovered from the patch backing film compared to 4K [2, 7]: 20%
- decrease in median percentage of soluble material recovered from the patch backing film compared to Av6 [2, 7]: 15%
- decrease in median percentage of soluble material recovered from the patch backing film compared to Cv6 [2, 7]: 14%
- decrease in median percentage of soluble material recovered from the patch backing film compared to 4K [2, 8]: 19%
- decrease in median percentage of soluble material recovered from the patch backing film compared to Av6 [2, 8]: 15%
- decrease in median percentage of soluble material recovered from the patch backing film compared to Cv6 [2, 8]: 13%
- decrease in median percentage of soluble material recovered from the patch backing film compared to 4K [2, 9]: 15%
- decrease in median percentage of soluble material recovered from the patch backing film compared to Av6 [2, 9]: 11%
- decrease in median percentage of soluble material recovered from the patch backing film compared to Cv6 [2, 9]: 14%
- decrease in median percentage of soluble material recovered from the patch backing film compared to 4K [2, 10]: 14%
- decrease in median percentage of soluble material recovered from the patch backing film compared to Av6 [2, 10]: 1%
- decrease in median percentage of soluble material recovered from the patch backing film compared to Cv6 [2, 10]: 14%
- decrease in median percentage of soluble material recovered from the patch backing film compared to 4K [2, 11]: 18%
- decrease in median percentage of soluble material recovered from the patch backing film compared to Av6 [2, 11]: 9%
- decrease in median percentage of soluble material recovered from the patch backing film compared to Cv6 [2, 11]: 13%
- decrease in median percentage of soluble material recovered from the patch backing film compared to 4K [2, 12]: 17%
- decrease in median percentage of soluble material recovered from the patch backing film compared to Av6 [2, 12]: 17%
- decrease in median percentage of soluble material recovered from the patch backing film compared to Cv6 [2, 12]: 15%
- decrease in median percentage of soluble material recovered from the patch backing film compared to 4K [2, 13]: 16%
- decrease in median percentage of soluble material recovered from the patch backing film compared to Av6 [2, 13]: 10%
- decrease in median percentage of soluble material recovered from the patch backing film compared to Cv6 [2, 13]: 16%
- decrease in median percentage of soluble material recovered from the patch backing film compared to 4K [2, 14]: 15%
- decrease in median percentage of soluble material recovered from the patch backing film compared to Av6 [2, 14]: 10%
- decrease in median percentage of soluble material recovered from the patch backing film compared to Cv6 [2, 14]: 4%

Substance: H-PSGEGSFQPSQENPQ-NH2 [BB4a]
- median percentage of soluble material recovered from the patch backing film [1]: above 80%
- decrease in median percentage of soluble material recovered from the patch backing film compared to 4K [2, 3]: 14%
- decrease in median percentage of soluble material recovered from the patch backing film compared to Av6 [2, 3]: 5%
- decrease in median percentage of soluble material recovered from the patch backing film compared to Cv6 [2, 3]: 12%
- decrease in median percentage of soluble material recovered from the patch backing film compared to 4K [2, 4]: 13%
- decrease in median percentage of soluble material recovered from the patch backing film compared to Av6 [2, 4]: 8%
- decrease in median percentage of soluble material recovered from the patch backing film compared to Cv6 [2, 4]: 7%
- decrease in median percentage of soluble material recovered from the patch backing film compared to 4K [2, 5]: 14%
- decrease in median percentage of soluble material recovered from the patch backing film compared to Av6 [2, 5]: 4%
- decrease in median percentage of soluble material recovered from the patch backing film compared to Cv6 [2, 5]: 0%
- decrease in median percentage of soluble material recovered from the patch backing film compared to 4K [2, 6]: 17%
- decrease in median percentage of soluble material recovered from the patch backing film compared to Av6 [2, 6]: 10%
- decrease in median percentage of soluble material recovered from the patch backing film compared to Cv6 [2, 6]: 17%
- decrease in median percentage of soluble material recovered from the patch backing film compared to 4K [2, 7]: 17%
- decrease in median percentage of soluble material recovered from the patch backing film compared to Av6 [2, 7]: 11%
- decrease in median percentage of soluble material recovered from the patch backing film compared to Cv6 [2, 7]: 10%
- decrease in median percentage of soluble material recovered from the patch backing film compared to 4K [2, 8]: 18%
- decrease in median percentage of soluble material recovered from the patch backing film compared to Av6 [2, 8]: 14%
- decrease in median percentage of soluble material recovered from the patch backing film compared to Cv6 [2, 8]: 12%
- decrease in median percentage of soluble material recovered from the patch backing film compared to 4K [2, 9]: 14%
- decrease in median percentage of soluble material recovered from the patch backing film compared to Av6 [2, 9]: 10%
- decrease in median percentage of soluble material recovered from the patch backing film compared to Cv6 [2, 9]: 13%
- decrease in median percentage of soluble material recovered from the patch backing film compared to 4K [2, 10]: 14%
- decrease in median percentage of soluble material recovered from the patch backing film compared to Av6 [2, 10]: 1%
- decrease in median percentage of soluble material recovered from the patch backing film compared to Cv6 [2, 10]: 14%
- decrease in median percentage of soluble material recovered from the patch backing film compared to 4K [2, 11]: 15%
- decrease in median percentage of soluble material recovered from the patch backing film compared to Av6 [2, 11]: 7%
- decrease in median percentage of soluble material recovered from the patch backing film compared to Cv6 [2, 11]: 11%
- decrease in median percentage of soluble material recovered from the patch backing film compared to 4K [2, 12]: 11%
- decrease in median percentage of soluble material recovered from the patch backing film compared to Av6 [2, 12]: 11%
- decrease in median percentage of soluble material recovered from the patch backing film compared to Cv6 [2, 12]: 9%
- decrease in median percentage of soluble material recovered from the patch backing film compared to 4K [2, 13]: 12%
- decrease in median percentage of soluble material recovered from the patch backing film compared to Av6 [2, 13]: 6%
- decrease in median percentage of soluble material recovered from the patch backing film compared to Cv6 [2, 13]: 12%
- decrease in median percentage of soluble material recovered from the patch backing film compared to 4K [2, 14]: 13%
- decrease in median percentage of soluble material recovered from the patch backing film compared to Av6 [2, 14]: 9%
- decrease in median percentage of soluble material recovered from the patch backing film compared to Cv6 [2, 14]: 2%
